Reference: patent publication US20160166570A1, “TREATMENT OR PREVENTION OF NON-INFLAMMATORY NEURONAL DAMAGE FROM BRAIN TRAUMA AND STROKES USING MENTHOL, LINALOOL AND/OR ICILIN” (NESTEC S.A., priority 2013, published 2016)

Key:
[1] = tested on: Lateral Amygdala glutamatergic neuron; experiment: whole cell, current clamp recordings, square pulse at high depolarization, mouse brain slice; assay type: cell-based; conditions: for action potentials at higher stimulation levels / amount of current required to trigger an action potential / threshold to trigger an action potential: as summarised from the experimental results; for amount of current required to trigger an action potential / threshold to trigger an action potential: neocortex; for inactivation of the sodium fast channels / further neuronal firing relative to control: square pulse of 2.5s at high depolarization of membrane potential (approximately −30 mV), FIG. 2
Description: (§1) A mouse brain slice was used to study the damage from Menthol, Linalool and Icilin. The amygdaloid complex is located within the medial temporal lobe in neocortex and amygdala. The lateral and basolateral nuclei of the amygdaloid complex receive sensory information from cortical and thalamic structures, process the information, and then transmit the information, either directly or through the basal nucleus, to the central nucleus. For experimental analysis of neuronal activity, synaptic responses from the basolateral complex can be evoked electrically using electrodes, and the action potentials can be measured. […] A square pulse of 2.5s was applied at high depolarization of membrane potential (approximately −30 mV).

[2] = tested on: Lateral Amygdala glutamatergic neuron; experiment: whole cell, current clamp recordings with increasing concentration of gabazine (spontaneous action potential bursts), mouse brain slice; assay type: cell-based; conditions: Menthol 250 μM extracellularly 10 minutes previous to and during increasing concentrations of gabazine; recordings of 5 min, washout 10 min; FIG. 5 vs FIG. 3
Description: as §1, with “As shown, neurons spontaneously present action” for “A square pulse of 2.5s was applied at high depolarization of membrane”, “bursts due to massive presynaptic discharges.” for “(approximately −30 mV).”

Compound: O=C1NC(c2cccc([N+](=O)[O-])c2)=CCN1c1ccccc1O [Icilin]
- action potentials at higher stimulation levels [1]: abort action potentials at higher stimulation levels
- amount of current required to trigger an action potential [1]: increase the amount of current required to trigger an action potential
- threshold to trigger an action potential [1]: increase the threshold to trigger an action potential
- inactivation of the sodium fast channels / further neuronal firing relative to control [1]: inactivation of the sodium fast channels happens sooner relative to control

Compound: C=CC(C)(O)CCC=C(C)C (stereo not shown) [Linalool]
- action potentials at higher stimulation levels [1]: abort action potentials at higher stimulation levels
- amount of current required to trigger an action potential [1]: increase the amount of current required to trigger an action potential
- threshold to trigger an action potential [1]: increase the threshold to trigger an action potential
- inactivation of the sodium fast channels / further neuronal firing relative to control [1]: inactivation of the sodium fast channels happens sooner relative to control

Compound: CC1CCC(C(C)C)C(O)C1 (stereo not shown) [Menthol]
- spontaneous action potential bursts under gabazine [2]: complete absence or a strongly decreased presence of spontaneous bursts
- action potentials at higher stimulation levels [1]: abort action potentials at higher stimulation levels
- amount of current required to trigger an action potential [1]: increase the amount of current required to trigger an action potential
- threshold to trigger an action potential [1]: increase the threshold to trigger an action potential
- inactivation of the sodium fast channels / further neuronal firing relative to control [1]: inactivation of the sodium fast channels happens sooner relative to control
